Source: article PMC10208276, “A Very Long-acting Exatecan and Its Synergism with DNA Damage Response Inhibitors” (Cancer Research Communications, 2023)
Entries after “also recorded” stand apart in the source; their conditions may differ. Read-outs that look alike come from different tables or passages of the source.

Assays:
[1] = cited from earlier work
[2] = system: drug-efflux pumps; conditions: cited from earlier work
[3] = system: BRCA1-deficient MX-1 TNBC xenografts; set-up: method as in PMID 9685056; conditions: total dose of 25 and 75 mg (57 and 170 μmol)/kg, four times at 4-day intervals, at 28 days; cited from earlier work
[4] = system: tumor cells; set-up: method as in PMID 12234607; conditions: cited from earlier work
[5] = system: BRCA1-deficient MX-1 TNBC xenografts; experiment: Antitumor activity of PEG-Exa in the MX-1 murine xenograft, alone and combined with TLZ or VX970; format: in vivo, female scid mice
Excerpt: Animals were housed at Murigenics.
To assess the interaction of the drug combination, we used an additivity index determined as TGcalc/TGobsd where […] and TGcalc is the product of TGobsd values of the individual drugs. Here, an index <1 indicates infra-additive, an index of 1 indicates additivity and an index >1 indicates a supra-additive or synergistic interaction.
We measured the effects of a combination of PEG-Exa with the PARPi TLZ and the ATRi VX970 on growth of MX-1 xenografts. […] To assess the interaction of a drug combination, we used an additivity index ([28]) determined as TGcalc/TGobsd where TGcalc is the product of TGobsd values of the individual drugs and TGobsd is the observed tumor growth in the presence of both drug. Here, an index <1 indicates infra-additive, an index of 1 indicates additivity and an index >1 indicates a supra-additive or synergistic interaction.

[6] = system: patient-derived triple-negative breast cancer (TNBC) xenografts; set-up: method as in PMID 32075943; conditions: cited from earlier work
[7] = system: relapsed small cell lung cancer; set-up: method as in PMID 33848478; conditions: combination of topotecan with the ATRi VX-970, 5-day interval of a 21-day cycle; cited from earlier work
[8] = VX970 64 μmol/kg PO, 4 consecutive days a week, alone
[9] = single intraperitoneal doses of 10 and 15 μmol/kg

Molecule: CC[C@@]1(O)C(=O)OCc2c1cc1n(c2=O)Cc2c-1nc1cc(F)c(C)c3c1c2[C@@H](N)CC3 [Exa, exatecan]
- t1/2 ([1]; in humans): approximately 10 hours
- substrate for drug-efflux pumps [2]: does not appear to be a substrate
- effect on MX-1 TNBC xenografts [3]: regression
- increase of inhibitory potency upon prolonged exposure [4]: about 80 fold

Molecule: CCc1c2c(nc3ccc(O)cc13)-c1cc3c(c(=O)n1C2)COC(=O)[C@]3(O)CC [SN-38]
- apparent t1/2 ([1]; SN-38 formed from CPT-11): approximately 12 hours

Molecule: Cn1ncnc1[C@H]1c2n[nH]c(=O)c3cc(F)cc(c23)N[C@@H]1c1ccc(F)cc1 [TLZ, talazoparib]
- TGobsd ([5]; 0.4 μmol (0.15 mg)/kg orally every day, Fig. 4A): 0.71

Molecule: CNCc1ccc(-c2cc(-c3nc(-c4ccc(S(=O)(=O)C(C)C)cc4)cnc3N)on2)cc1 [VX970]
- AUC of median MX-1 Tumor volume ([5]; VX970 16 μmol/kg alone): 0.98 Fraction of vehicle control
- AUC of median MX-1 Tumor volume ([5]; VX970 32 μmol/kg alone): 0.96 Fraction of vehicle control
- TGI [5, 8]: 0
- TGobsd, AUC of median MX-1 Tumor volume [5, 8]: 1.04 Fraction of vehicle control
- effect on growth of MX-1 xenografts ([5]; VX970 alone, 64 μmol/kg for 4 consecutive days a week): do not affect tumor growth; also recorded: no effect

Molecule: CCc1c2c(nc3ccc(OC(=O)N4CCC(N5CCCCC5)CC4)cc13)-c1cc3c(c(=O)n1C2)COC(=O)[C@]3(O)CC [irinotecan]
- responsive xenografts ([6]; xenografts containing both biomarkers): 100%
- response rate ([6]; xenografts with BRCAness): 50%
- response rate ([6]; xenografts with high SLFN11): 75%

Molecule: CC[C@@]1(O)C(=O)OCc2c1cc1n(c2=O)Cc2cc3c(CN(C)C)c(O)ccc3nc2-1 [topotecan]
- ORR [7]: 36%

Molecule: PEG40kDa-[exatecan]4 (Mod = 4-Cl-C6H4-SO2-) [3A]
- potency in growth suppression relative to PLX038A (PEG-SN-38) ([5]; […] PEG-Exa nearly identical to 15 μmol/kg PLX038A): approximately 6 fold
- dose lower than dose of free Exa required to suppress MX-1 xenografts ([5]; single 10 μmol/kg versus total 57 μmol/kg free Exa (ref 26)): 6 fold
- dose lower than dose of free Exa required to suppress MX-1 xenografts ([5]; single 10 μmol/kg versus total 170 μmol/kg free Exa (ref 26)): 18 fold
- duration of tumor growth suppression ([5]; single dose of 10 μmol/kg): over 40 days
- tumor growth of MX-1 xenografts ([5]; single dose of 10 μmol/kg): complete suppression of tumor growth
- duration of complete growth inhibition [5, 9]: > 48 days
- growth of tumors [5, 9]: complete growth inhibition
